Test results as given in PMC3486420, “In Vitro and In Vivo Characterizations of Chiglitazar, a Newly Identified PPAR Pan-Agonist” (PPAR Research, 2012).

How the values were obtained:
[1] = tested on: SMMC-7721 cells; test: Gene expression by RT-PCR in SMMC-7721 cells; assay type: cell-based, human; conditions: 48 h, 10 μM rosiglitazone, 10 μM chiglitazar
Source text: (§1) cDNAs for human retinoid X receptor (hRXR), PPARα, PPARγ, and PPARδ were obtained by reverse transcriptase polymerase chain reaction (RT-PCR) from human liver or adipose tissues. Amplified cDNAs were cloned into pcDNA3.1 expression vector (Invitrogen, Carlsbad, CA, USA). The integrity and fidelity of all constructs made were verified by DNA sequencing. Luciferase reporter plasmids, ACOX promoter for PPARγ and pHD(X3)-luc for PPARα, were kind gifts of Drs. TM McIntyre (University of Utah, USA) and RA Rachubinski (University of Alberta, Canada), respectively. PPRE-luc for PPARδ was constructed based on the previous report by insertion of the annealed oligonucleotides having four copies of the CYP4A6 PPRE (4 × […]) into the upstream of the luciferase coding sequence in pGL3-promoter vector (Promega, Madison, WI, USA). pCMVβGal was purchased from Clontech (Palo Alto, CA, USA). The mouse 3T3-L1 preadipocyte cell line, skeletal muscle C2C12 cell line, and macrophage RAW267.4 cell line and the human osteosarcoma U2OS cell line were obtained from the American Type Culture Collection (ATCC, Rockville, MD, USA). The human hepatoma SMMC-7721 cell line was obtained from the Cell Culture Center of Chinese Academy of Medical Sciences (Beijing, China). Cell lines were cultured in medium of DMEM (3T3-L1, C2C12, and SMMC-7721), RPMI 1640 (RAW267.4), or McCoy's 5A (U2OS), containing 10% fetal bovine serum (FBS), 50 μg/mL streptomycin, and 50 units/mL penicillin at 37°C in a humidified incubator with 5% CO2.
Total RNA was extracted from cells or tissues with an RNeasy minikit (Qiagen, Valencia, CA, USA). The first-strand cDNA was synthesized using the oligo(dT) primers, followed by using SuperScript II reverse transcriptase (Invitrogen) according to the manufacturer's instructions. The PCR amplifications were performed in 10 μL of reaction mixture volume containing 0.8 μL of cDNA, 10 mM Tris-HCl (pH 8.3), 50 mM KCl, 1.5 mM MgCl2, 0.1% Triton X-100, 0.2 mM deoxynucleotide triphosphates, 0.4 μM primers, and 0.25 U of Taq polymerase (TaKaRa Biotechnology Co., Ltd, China). Taq DNA polymerase was added to each tube after a treatment of 2 min at 94°C. This was followed by 22–30 cycles of denaturation (23 s at 94°C), annealing (20 s at 55°C), extension (30 s at 72°C), and a final extension step of 2 min. PCR products were analyzed by electrophoresis on a 1.5% agarose gel stained with ethidium bromide.
Figure 1 In vitro regulation of gene expression by chiglitazar. (a) Endogenous expression of individual PPAR subtypes in cell lines. […]. The expression change of referred genes induced by different compounds was normalized against internal control (36B4 or GAPDH) and then compared with vehicle control treatment. The data shown are averaged from 3 independent experiments.

[2] = tested on: C2C12 cells; test: Gene expression by RT-PCR in C2C12 cells; assay type: cell-based, mouse; conditions: 48 h, 10 μM chiglitazar, 50 μM WY14643, 5 μM 2-Bro, compared with rosiglitazone 10 μM
Source text: as §1
Total RNA was extracted from cells or tissues with an RNeasy minikit (Qiagen, Valencia, CA, USA). The first-strand cDNA was synthesized using the oligo(dT) primers, followed by using SuperScript II reverse transcriptase (Invitrogen) according to the manufacturer's instructions. […] PCR products were analyzed by electrophoresis on a 1.5% agarose gel stained with ethidium bromide. […]

[3] = tested on: Wistar rats; test: Influence in heart weight of Wistar rats, 6-month oral dosing; assay type: in vivo, rat; conditions: for Increase in heart weight: 135 mg kg^−1 (~900 mg/m^2) oral daily, 6 months
Description: Male and female Wistar rats of 6-week old were randomly divided into 4 groups, 5 for each male and female per group. Animals in different groups were orally treated daily with chiglitazar suspended in water at the doses of 15, 45, and 135 mg kg^−1, or vehicle (water), for 6 months. 24 h after the last treatment, animals were sacrificed and the weight of heart from individual animals was weighed.
Figure 5 Influence on heart weight and tissue distribution of chiglitazar in rats. (a) Wistar rats were orally administered daily with chiglitazar at the dose of 15, 45 and 135 mg kg^−1 for 6 months. 24 h after the last dosing, animals were sacrificed and the heart weight was evaluated. *P < 0.05 compared with control; n = 5 per group. (b) Male Wistar rats were orally administered with a single dose of ^3H-chiglitazar at 12.5 mg kg^−1 (radiation dose 31.7 MBq kg^−1). Rats were sacrificed at 1.5, 4, 8, and 24 h after treatment (n = 5 per time point), and various tissues/organs as indicated were taken for radioactivity measurement. The accumulated area under curves through 0 to 24 h (AUC0–24) was calculated based on individual tissue distribution measured at each time point. (c) The time course distribution of chiglitazar in different tissues at individual time point (1.5, 4, 8, 24 h). Data are expressed as mean ± SE.

[4] = Tissue distribution of 3H-chiglitazar in rats; assay type: in vivo, rat; conditions: male Wistar rats, single oral dose 12.5 mg kg^−1 3H-labelled, radioactivity AUC0–24
Description: ^3H-chiglitazar was synthesized and provided by the Beijing Institute of Atom Energy with specific activity of 15 Ci mmol^−1 and purity >97%. Tissue distribution of ^3H-chiglitazar in rats was evaluated based on the methods described previously. Briefly, male Wistar rats (~220 g in body weight, 12-week old) were randomly divided into 4 groups (5 per group). After fasted overnight, rats were orally administered with single dose of 12.5 mg kg^−1 of ^3H-chiglitazar (radiation dose 31.7 MBq kg^−1). Rats in different groups were sacrificed at 1.5, 4, 8, and 24 h after dosing. Blood (5–9 mL) was collected via cardiac puncture at the time of sacrifice. […] 1 mL of scintillation fluid was added to each well, and radioactivity was measured by a scintillation counter (Perkin Elmer, Waltham, MA, USA).
Figure 5 Influence on heart weight and tissue distribution of chiglitazar in rats. […] 24 h after the last dosing, animals were sacrificed and the heart weight was evaluated. *P < 0.05 compared with control; n = 5 per group. […] Rats were sacrificed at 1.5, 4, 8, and 24 h after treatment (n = 5 per time point), and various tissues/organs as indicated were taken for radioactivity measurement. The accumulated area under curves through 0 to 24 h (AUC0–24) was calculated based on individual tissue distribution measured at each time point. […] Data are expressed as mean ± SE.

[5] = tested on: Wistar obese rats; design: method as in PMID 16751799; conditions: Wistar obese rats treated for 9–40 days ref 18; cited from earlier work

## O=C(c1ccc(F)cc1)c1ccccc1NC(Cc1ccc(OCCn2c3ccccc3c3ccccc32)cc1)C(=O)O (centres unmarked) [Chi, 2-[(2-(4-fluorobenzoyl)phenyl)amino]-3-[4-(2-carbazolylethoxy)-phenyl]-propionic acid]
[1]; vs vehicle
  Expression of PPARγ downstream genes AOX, LIPC and HSL: upregulated
[1]; 50 μM WY14643, 5 μM 2-Bro
  Expression of LDL receptor (LDLR): kept no change
[2]
  Expression of PPARα and/or PPARδ downstream genes CPT-1a and CPT-1b: more significantly upregulated
[3]; Wistar rats
  No-effect dose on heart weight (45 mg kg^−1) relative to optimal efficacy dose (10 mg kg^−1): about 4.5 times
[3]; Wistar rats, 135 mg kg^−1, 6 months (data not shown)
  Microscopical examination of weight-increased hearts: minimal to mild myocardial hypertrophy
[3]; Wistar rats, oral daily 6 months, doses as high as 45 mg kg^−1 (~300 mg/m^2)
  Heart weight: did not increase
[3]; female Wistar rats
  Increase in heart weight: about 20%
[3]; male Wistar rats
  Increase in heart weight: ~12%
[4]
  Tissue distribution: level in kidney, adipose tissue and heart: low levels
  Tissue distribution: level in plasma, liver and pancreas: high levels
[5]
  Optimal efficacy dose: 10 mg/kg
